Holding throughout (assay type): physicochemical
Series [1] in a line: Filter retention: percent recovery of analyte after syringe-pump filtration, HPLC at 295 nm pre- and post-filtration. The procedure: In particular, compositions comprising BMS-747158-01 and BMS-747159-01 were prepared in water comprising absolute ethanol (4 wt. %) and sodium ascorbate (50 mg/mL; 5 wt. %) then loaded into plastic syringes (Norm-Ject™; 12 mL) and placed onto an automated syringe pump. Select filters were then placed on each respective syringe and the composition pumped through the units in a controlled fashion. In all cases, gravimetric analysis of the solution transfer process was performed in order to monitor efficiency of the liquid handling steps. Subsequent quantitative analysis of filter retention was then performed following HPLC determination of the absolute concentration of each analyte in both the pre- and post-filtered solutions; HPLC analysis with detection at 295 nm was performed according to established methods. The following equation was then utilized to determine the percent recovery for each analyte:
[formula] Note a higher value of percent recovery equates to lower retention of the respective analyte, and thus improved overall filter performance. The analysis described herein captures both the mass of the compound that is retained as well as the volume of liquid that is retained. As no normalization is performed, the analysis thus allows for direct comparison of relevant filter parameters.
The compositions comprising BMS-747158-01 and BMS-747159-01 were passed through a variety of filters, as described herein. Individual filter parameters varied in terms of both membrane and housing composition, overall filter diameter, and in some instances the applied coating (Table 1). Further, effects of both individual analyte concentration as well as the overall rate of filtration were also evaluated.

A short description of series [2]: Measured log D (relative lipophilicity of analytes). To be noted: relative to BMS-747158-01.
Series [3] can be described thus: Retention of flurpiridaz F 18 on PVDF, PTFE and RC filters with synthesis modules. To be noted: Siemens Explora GN/LC (manual) and GE TracerLab MX (automated) modules; FIG. 9. The source says: This was particularly surprising since structurally and chemically, the PVDF filter is more similar to the PTFE filter than the RC filter. Further, the data substantiate that use of the RC filter membrane improves recovery of ^18F-bearing radiopharmaceuticals across multiple synthesis module platforms.

In the case of `CC(C)(C)n1ncc(OCc2ccc(COCCF)cc2)c(Cl)c1=O` [BMS-747158-01], in series [1] (HDPE and PP housings (no aromatic rings), filters of identical diameter, FIG. 5), the “retention by filter housing composition” value is “retained lower amounts”. The “retention on PTFE and RC membranes in comparison to PVDF” value in series [1] (PTFE and RC filter membranes vs PVDF, FIG. 8) is reported as “retained lower amounts”. For the same molecule, the “retention by membrane composition” value in series [1] (PVDF membrane vs other membranes, filters of identical diameter, FIG. 4) is “retains the greatest amount”. Moreover, in series [1] (Pall PVDF filter, initial filtration, FIG. 6), the “retention after the initial filtration” value is listed as “retained large amounts”.

Turning to `CC(C)(C)n1ncc(OCc2ccc(COCCO)cc2)c(Cl)c1=O` [BMS-747159-01], the “lipophilicity (measured log D, relative)” value in series [2] was “lower inherent lipophilicity”.

Turning to `CC(C)(C)n1ncc(OCc2ccc(COCC[18F])cc2)c(Cl)c1=O` [flurpiridaz F 18], in series [3], the “retention on PTFE and RC filters vs PVDF filter” value is on record as “retain far less”.

(Values after patent US10568978B2, “Radiopharmaceutical synthesis methods” (Lantheus Medical Imaging, Inc., priority 2012, dated 2020).)
